“Also recorded” adds a separate entry of the source.
What was measured:
[1] = system: outward potassium current; experiment: Whole-cell patch clamp recording of potassium current in stem cell-derived retinal ganglion cells; format: cell-based, human; conditions: Protocol A, 4-AP 1 mM
[2] = system: human embryonic stem cell-derived retinal ganglion cells; experiment: Differentiation by other Wnt signaling pathway and Shh receptor activators, immunofluorescence of Islet-1 and NF200; format: cell-based; conditions: day 39, Protocol A schedule; BIO 2 μM, Norrin 50 ng/mL, purmorphamine 1 μM, RA 500 nM
Protocol: On day 14 after induction of differentiation, retinal progenitor cells generated in Example 3 were cultured and differentiated into immature retinal ganglion cells for 3 days in a differentiation medium [DMEM/F12 (Invitrogen), 1 mM L-glutamine (Invitrogen), 0.1 mM nonessential amino acids (Invitrogen), 0.1 mM mercaptoethanol (Sigma-Aldrich), 1% B27 supplement (Invitrogen), 1% N2 supplement (Invitrogen), 10 ng/mL Noggin, 10 ng/mL IGF-1, 5 ng/mL FGF2, 50 ng/mL recombinant Wnt3a (R&D Systems)] containing 2 μM BIO (6-bromoindirubin-3′-oxime) or 50 ng/mL Norrin as the Wnt signaling pathway activator instead of 50 ng/mL recombinant Wnt3a. On day 17 after induction of differentiation, immature retinal ganglion cells thus generated were cultured and differentiated into mature retinal ganglion cells for 5 days in a differentiation medium [DMEM/F12 (Invitrogen), 1 mM L-glutamine (Invitrogen), 0.1 mM nonessential amino acids (Invitrogen), 0.1 mM mercaptoethanol (Sigma-Aldrich), 1% B27 supplement (Invitrogen), 1% N2 supplement (Invitrogen), 10 ng/mL IGF-1, 250 ng/mL recombinant Shh (R&D Systems)] containing 1 μM purmorphamine as the Shh receptor activator instead of 250 ng/mL Shh. On day 22 after induction of differentiation, the mature retinal ganglion cells were matured for 39 days using a medium prepared by adding 500 nM retinoic acid (RA) to the above differentiation medium.
The immunofluorescence assay of the cells generated by this method was performed using retinal ganglion cell markers, Islet-1 and NF200, and the results were consistent with the results of using Wnt3a and Shh (FIG. 21).

[3] = system: AMPA receptor; experiment: Recording of spontaneous excitatory postsynaptic currents (sEPSCs) in stem cell-derived retinal ganglion cells; format: cell-based, human; conditions: H9-derived RGCs, CNQX 50 μM
[4] = system: human pluripotent stem cell-derived retinal ganglion cell line; experiment: Live cell Ca2+ imaging of retinal ganglion cell line; format: cell-based; conditions: 1 mM glutamate stimulation; Fluo-4; passaged cell line
Protocol: For calcium imaging, cells cultured on 18 mm coverslip were washed with Tyrode's solution (119 mM NaCl, 2.5 mM KCl, 2 mM CaCl2), 2 mM MgCl2, 25 mM HEPES, 30 mM glucose, pH 7.4) twice or three times, and then cultured at 37° C. with addition of 1 μM Fluo-4-AM (Life technologies, Carlsbad, Calif., USA). After culturing for 15 min, cells were washed with Tyrode's solution for 10 min. Time differential images were obtained by using an Olympus IX-71 inverted microscope (Olympus, Tokyo, Japan) equipped with 40×(1.0 NA) oil lens and EMCCD (iXon887, Andor Technologies, Belfast, Northern Ireland) every 0.5 sec for 30 min. From the 10th image frame, cells were stimulated with 1 mM glutamate. After stimulation, cells were infused with Tyrode's solution.

[5] = system: voltage-gated sodium channel; format: cell-based, human
[6] = system: retinal ganglion cells; experiment: Effects of Wnt3a, Shh and RA in Protocol A differentiation, immunofluorescence assay with retinal ganglion cell-specific markers; format: cell-based, human; design: production of retinal ganglion cells: dose or concentration left out as unconfirmed; conditions: day 39
Protocol: After being blocked for 90 min, the slides in each differentiation step were incubated overnight at 4° C. with antibodies specific to cells of each differentiation step as given in Table 1. Before use, these antibodies were diluted in a PBS solution containing 1% BSA and 0.25% Triton X-100. The cells cultured on the slides in each step were washed three times for 5 min with PBS and incubated at room temperature for 2 hr with species-specific secondary antibody conjugated with Cy3 (1:800, Jackson Immunoresearch Laboratory) or Alexa488 (1:500, Invitrogen) (Table 1). A standard material suitable for the primary and the secondary antibodies was used to examine non-specific staining or interaction between the antibodies. Thereafter, the cells were washed three times for 5 min with PBS, counterstained with DAPI (4′,6-diamidino-2 phenylindole) and mounted in Vectashield (Vector Laboratories), followed by visualization under an epifluorescence microscope (Nikon Eclipse, E800, Tokyo, Japan) and a confocal microscope (Zeiss LSM510, Carl Zeiss, Inc, Thornwood, N.Y., USA). 500 cells were counted from 20 microscopic fields randomly selected at 400 magnification and evaluated for positive responses to each antibody. Positive responses to antibodies were determined after at least three evaluations.
To examine effects of each of Wnt3a, Shh and RA used in the Protocol A differentiation method during production of retinal ganglion cells, respective factors were treated according to a differentiation schedule of Protocol A, and on day 39 after induction of differentiation, an immunofluorescence assay was performed using retinal ganglion cell-specific markers (FIG. 22).

Nc1ccncc1 [4-Aminopyridine, 4-aminopyridine]
fast-activating fraction of outward potassium current ([1]; H9-derived RGCs, day 59): blocked | fast-activating fraction of outward potassium current ([1]; iPSC-derived RGCs, day 39): blocked

O=C1Nc2cc(Br)ccc2/C1=C1/Nc2ccccc2/C1=N\O [BIO, 6-bromoindirubin-3′-oxime]
immunofluorescence staining of Islet-1 and NF200 compared with Wnt3a and Shh [2]: consistent with the immunofluorescence staining results of Wnt3a and Shh

N#Cc1cc2c(cc1[N+](=O)[O-])=NC(=O)C(=O)N=2 [CNQX, 6-cyano-7-nitroquinoxaline-2,3-dione]
appearance of sEPSCs ([3]; Protocol A, day 59): blocked | appearance of sEPSCs ([3]; Protocol B, day 96): blocked

N[C@@H](CCC(=O)O)C(=O)O [glutamate]
cytoplasmic calcium level [4]: considerably increased; also recorded: considerable increase

c1ccc2c(Oc3nc(Nc4ccc(N5CCOCC5)cc4)c4ncn(C5CCCCC5)c4n3)cccc2c1 [purmorphamine]
immunofluorescence staining of Islet-1 and NF200 compared with Wnt3a and Shh [2]: consistent with the immunofluorescence staining results of Wnt3a and Shh

NC1=N[C@H](O)[C@H]2[C@H]3O[C@]4(O)O[C@@H]([C@@H](O)[C@@]2(N1)[C@@H]4O)[C@]3(O)CO [tetrodotoxin]
fast-activating and inactivating inward sodium currents [5]: completely blocked

B1: Norrin: Wnt signaling pathway activator; binds to Frizzled4 receptor (protein, UniProt Q00604 25-133, looked up)
Norrin: KTDSSFIMDSDPRRCMRHHYVDSISHPLYKCSSKMVLLARCEGHCSQASRSEPLVSFSTVLKQPFRSSCHCCRPQTSKLKALRLRCSGGMRLTATYRYILSCHCEECNS
immunofluorescence staining of Islet-1 and NF200 compared with Wnt3a and Shh [2]: consistent with the immunofluorescence staining results of Wnt3a and Shh

B2: Wnt3a: recombinant Wnt3a, Wnt signaling pathway activator (protein, UniProt P56704 19-352, looked up)
Protein Wnt-3a: SYPIWWSLAVGPQYSSLGSQPILCASIPGLVPKQLRFCRNYVEIMPSVAEGIKIGIQECQHQFRGRRWNCTTVHDSLAIFGPVLDKATRESAFVHAIASAGVAFAVTRSCAEGTAAICGCSSRHQGSPGKGWKWGGCSEDIEFGGMVSREFADARENRPDARSAMNRHNNEAGRQAIASHMHLKCKCHGLSGSCEVKTCWWSQPDFRAIGDFLKDKYDSASEMVVEKHRESRGWVETLRPRYTYFKVPTERDLVYYEASPNFCEPNPETGSFGTRDRTCNVSSHGIDGCDLLCCGRGHNARAERRREKCRCVFHWCCYVSCQECTRVYDVHTCK
caliber growth and fasciculation of axons (NF200 staining) ([6]; Protocol A schedule): delayed | synaptogenesis and dendritic spine development (TUJ1 staining) ([6]; Protocol A schedule): no synaptogenesis and dendritic spine development | retinal ganglion cells produced ([6]; factors treated per Protocol A schedule): ≥ 80%

B3: Dkkl: Wnt3a antagonist; recombinant Dickkopf-1, Wnt signaling pathway inhibitor (protein, UniProt O94907 32-266, looked up)
Dickkopf-related protein 1: TLNSVLNSNAIKNLPPPLGGAAGHPGSAVSAAPGILYPGGNKYQTIDNYQPYPCAEDEECGTDEYCASPTRGGDAGVQICLACRKRRKRCMRHAMCCPGNYCKNGICVSSDQNHFRGEIEETITESFGNDHSTLDGYSRRTTLSSKMYHTKGQEGSVCLRSSDCASGLCCARHFWSKICKPVLKEGQVCTKHRRKGSHGLEIFQRCYCGEGLSCRIQKDHHQASNSSRLHTCQRH
production of retinal ganglion cells ([6]; instead of Wnt3a days 14 to 17, Shh and RA per schedule): hardly produced

Reference: US11168302B2, “Method for differentiation into retinal ganglion cells from stem cells” (ClavisTherapeutics, INC., priority 2014, dated 2021)
